From ChEMBL document CHEMBL1158855, “Study on cytotoxic oxygenated desmosterols isolated from the red alga Galaxaura marginata” (1997)
In brackets after ≈: the same amount, converted by molar mass.

Legend:
Format in all cases: functional
Conditions in all cases: read-out: ED50 (the source's name)
P388 = test: Cytotoxicity against mouse P388 cells by MTT assay
HT-29 = test: Cytotoxicity against human HT29 cells by MTT assay
A549 = test: Cytotoxicity against human A549 cells by MTT assay
KB = test: Cytotoxicity against human KB cells by MTT assay

SMILES	EC50 (P388) [µg/mL]	EC50 (HT-29) [µg/mL]	EC50 (A549) [µg/mL]	EC50 (KB) [µg/mL]
C[C@H](C/C=C/C(C)(C)OO)[C@H]1CC[C@H]2[C@@H]3C[C@@H](O)C4=CC(=O)CC[C@]4(C)[C@H]3CC[C@]12C	0.28 (≈ 0.65 µM)	0.63 (≈ 1.46 µM)	1 (≈ 2.32 µM)	0.4 (≈ 0.929 µM)
C=C(C)C(O)CC[C@@H](C)[C@H]1CC[C@H]2[C@@H]3C[C@@H](O)C4=CC(=O)CC[C@]4(C)[C@H]3CC[C@]12C (stereo not given in full)	0.19 (≈ 0.458 µM)	0.3 (≈ 0.724 µM)	2.37 (≈ 5.72 µM)	0.83 (≈ 2 µM)
C=C(C)C(=O)CC[C@@H](C)[C@H]1CC[C@H]2[C@@H]3CC(=O)C4=CC(=O)CC[C@]4(C)[C@H]3CC[C@]12C	0.11 (≈ 0.268 µM)	0.3 (≈ 0.731 µM)	0.27 (≈ 0.658 µM)	0.24 (≈ 0.585 µM)
C[C@H](C/C=C/C(C)(C)O)[C@H]1CC[C@H]2[C@@H]3C[C@@H](O)C4=CC(=O)CC[C@]4(C)[C@H]3CC[C@]12C	0.14 (≈ 0.338 µM)	0.55 (≈ 1.33 µM)	1.54 (≈ 3.71 µM)	0.45 (≈ 1.09 µM)
C=C(C)C(CC[C@@H](C)[C@H]1CC[C@H]2[C@@H]3C[C@@H](O)C4=CC(=O)CC[C@]4(C)[C@H]3CC[C@]12C)OO (stereo not given in full)	0.22 (≈ 0.511 µM)	0.47 (≈ 1.09 µM)	0.58 (≈ 1.35 µM)	0.79 (≈ 1.83 µM)
